Data published in patent publication US10245229B2, “Pulmonary delivery of mRNA to non-lung target cells” (Shire Human Genetic Therapies, Inc., priority 2012, dated 2019).

Tested on: non-lung cells
Assay: Comparison of delivery vehicles: luminescence in non-lung cells following pulmonary delivery
Type: in vivo
Conditions: following pulmonary delivery of FFL mRNA with the delivery vehicle

## CCCCCCCC/C=C\CCCCCCCC(=O)OCC(C[N+](C)(C)C)OC(=O)CCCCCCC/C=C\CCCCCCCC (stereo not shown) [DOTAP, 1,2-Dioleoyl-3-Trimethylammonium-Propane]
  Luminescence / protein production in non-lung cells: did not show luminescence in non-lung cells
